Assay [1] has as its target T1, His-p53 Y220C (94-294) protein (Homo sapiens, UniProt P04637, Y220C).
T1 construct: His-p53 Y220C (94-294) protein
Nature of the assay: In vitro DNA binding assay (HTRF). The assay is classed as biochemical. As to conditions: % activation normalized to 2 μM Ref-1a high control. A general note: In TR-FRET formats the signal depends on donor and acceptor labels being close together.

The subject of another assay is NUGC3 (P53 Y220C). In words: Cell viability assay (CellTiter-Glo, 6 days), NUGC3. As to conditions: Homo sapiens, NUGC-3, 144 h. The class given is cell-based. As for the experimental part: (§1) Cells were collected and counted. A desired number of cells was seeded into 96-well microplate and cultured in 37° C. cell incubator overnight. Compounds dissolved in cell culture medium were added into cell plate and cultured for 6 days. After balancing CellTiter-Glo reagent and cells at room temperature for 30 min, equal volume of CellTiter-Glo reagents was added to assay plate and shaken for 2 min for cell lysis. The cells were balanced at room temperature for 10 minutes and Luminescence signal was read using Envision. The percent of cell viability for compounds treated wells were normalized between High control and low control. Wells containing cell culture medium and same percentage DMSO sewved as Low control. Wells containing cells and same percentage DMSO sewved as High control. Cell viability (%)=(Luminescence readoutCompound treated−Luminescence readoutLow control)/(Luminescence readoutHigh control−Luminescence readoutLow control)*100%. Then the data were analyzed either by fitting a 4-parameter logistic model or by Excel to calculate IC50 values. And the IC50 was the concentration at 50% Cell viability on the curve.
In general terms: In ATP-based viability assays light output follows the ATP content of the culture.

The next assay deals with NUGC4 (P53 WT). In words: Cell viability assay (CellTiter-Glo, 6 days), NUGC4. As to conditions: Homo sapiens, NUGC-4, 144 h. The class given is cell-based. As for the experimental part: as §1
The subject of assay [2] is NUGC-3_P53_Luc single clonal cell line (p53 Y220C). Nature of the assay: Reporter gene assay (p53 RE luciferase). The assay is classed as cell-based. As to conditions: Homo sapiens. As for the experimental part: NUGC-3_P53_Luc single clonal cell line was established using pGL4.38[luc2P/p53 RE/Hygro] Vector (E365A, promega). NUGC-3_P53-Luc single clonal cells were cultured in 37° C. cell incubator before use. NUGC-3-P53-Luc cells were collected and washed twice with PBS to remove phenol red and then resuspended in medium to a proper concentration. Tested compound dilutions were transferred into 384 well assay plates (PerkinElmer). A desired number of cells was seeded into the assay plate and cultured for 6 hours at 37° C. cell incubator. Britelite plus Luciferase Assay Reagent were added into each well and the luminescence value was recorded on Envision. The percent of activity value of compounds treated wells was normalized between high control and low control. Wells containing cells and Ref-1a (10 μM) sewved as high control, and wells containing cells and same percentage of DMSO sewved as low control. Activity value (%)=(Luminescence readoutCompound treated−Luminescence readoutLow control)/(Luminescence readoutHigh control−Luminescence readoutLow control)*100%. Then the data were analyzed either by fitting a 4-parameter logistic model or by Excel to calculate EC50 values and the EC50 was the concentration at 50% Activity on the curve.

Setting [3] is: cell viability, 6 days, CellTiter-Glo, read-out: NUGC3 (P53 Y220C) IC50.
The mark [4] stands for this setting: cell viability, 6 days, CellTiter-Glo, read-out: NUGC4 (P53 WT) IC50.
Setting [5] is: NUGC-3, luciferase reporter, 6 hours, normalized to Ref-1a (10 μM) high control, read-out: p53(Y220C)_NUGC-3 EC50.
Where [6] appears, read: NUGC-3, 6 h, luciferase reporter, 6 hours, normalized to Ref-1a (10 μM) high control, read-out: p53(Y220C)_NUGC-3 EC50.

SMILES strings stand for the structures. Like-named read-outs stand apart in the source and are kept apart here. Bounds are passed on as bounds.

What is called EC50 is the midpoint of the concentration-response curve. Usually IC50 stands for the concentration that inhibits the measured activity by half. For the molecule `COc1cc(P2(=O)CCCC2)ccc1NCC#Cc1sc2c(N[C@@H]3CCN(C)C[C@@H]3F)cccc2c1CC(F)(F)F` [Example 117, 1-(4-((3-(7-(((3S,4R)-3-fluoro-1-methylpiperidin-4-yl)amino)-3-(2,2,2-trifluoroethyl)benzo[b]thiophen-2-yl)prop-2-yn-1-yl)amino)-3-methoxyphenyl)phospholane 1-oxide], the EC50 in assay [1] stood at 34 nM; in assay [2] (NUGC-3, 6 h, read-out: p53(Y220C)_NUGC-3 EC50 (μM)) it was 0.17 µM. Also, the IC50 in the assay on NUGC3 (P53 Y220C) (read-out: NUGC3 (P53 Y220C) IC50 (μM)) was 0.93 µM; in the assay on NUGC4 (P53 WT) (read-out: NUGC4 (P53 WT) IC50 (μM)), 8.54 µM.

In the case of `CN1CC[C@@H](Nc2cccc3c(CC(F)(F)F)c(C#CCOc4ccc(P(C)(C)=O)cc4C(N)=O)sc23)[C@@H](F)C1` [Example 165, 5-(dimethylphosphoryl)-2-((3-(7-(((3S,4R)-3-fluoro-1-methylpiperidin-4-yl)amino)-3-(2,2,2-trifluoroethyl)benzo[b]thiophen-2-yl)prop-2-yn-1-yl)oxy)benzamide], the EC50 in assay [1] was 48 nM; in assay [2] (setting [5]) it was 4.22 µM. For the same molecule, the IC50 in the assay with NUGC3 (P53 Y220C) (setting [3]) is 20.5 µM; in the assay on NUGC4 (P53 WT) (setting [4]), over 50 µM.

Take `COCCOCCNC(=O)c1ccc(NCC#Cc2sc3c(N[C@@H]4CCN(C)C[C@@H]4F)cccc3c2CC(F)(F)F)c(OC)c1` (racemic) [Example 96, 4-((3-(7-(((Z)-3-fluoro-1-methylpiperidin-4-yl)amino)-3-(2,2,2-trifluoroethyl)benzo[b]thiophen-2-yl)prop-2-yn-1-yl)amino)-3-methoxy-N-(2-(2-methoxyethoxy)ethyl)benzamide]: the EC50 is 103 nM in assay [1] and 0.13 µM in assay [2] (setting [5]). For the same molecule, the IC50 in the assay with NUGC3 (P53 Y220C) (setting [3]) turned out to be 1.68 µM; in the assay on NUGC4 (P53 WT) (setting [4]) it was 9.93 µM.

With `CNC(=O)c1ccc(NCC#Cc2cc3c(N[C@@H]4CCN(C)C[C@@H]4F)cccc3n2CC(F)(F)F)c(OC)c1` [Example 110, 4-((3-(4-(((3S,4R)-3-fluoro-1-methylpiperidin-4-yl)amino)-1-(2,2,2-trifluoroethyl)-1H-indol-2-yl)prop-2-yn-1-yl)amino)-3-methoxy-N-methylbenzamide], the half-maximal effective concentration (EC50) in assay [1] came to 27 nM; in assay [2] (setting [6]), 0.04 µM. For the same molecule, the IC50 was found to be 1.02 µM in the assay on NUGC3 (P53 Y220C) (setting [3]) and 14.2 µM in the assay with NUGC4 (P53 WT) (setting [4]).

With `COc1cc(-c2ncn(C)n2)ccc1NCC#Cc1sc2c(N[C@@H]3CCN(C)C[C@@H]3F)cccc2c1CC(F)(F)F` [Example 172, (3S,4R)-3-fluoro-N-(2-(3-((2-methoxy-4-(1-methyl-1H-1,2,4-triazol-3-yl)phenyl)amino)prop-1-yn-1-yl)-3-(2,2,2-trifluoroethyl)benzo[b]thiophen-7-yl)-1-methylpiperidin-4-amine], the EC50 in assay [1] is 60 nM; in assay [2] (setting [5]), 0.18 µM. In addition, the IC50 in the assay on NUGC3 (P53 Y220C) (setting [3]) amounted to 1.51 µM; in the assay with NUGC4 (P53 WT) (setting [4]) it was 7.55 µM.

For `COc1cc(P2(=O)CCN(C(=O)C3CC3)CC2)ccc1NCC#Cc1sc2c(N[C@@H]3CCN(C)C[C@@H]3F)cccc2c1CC(F)(F)F` [Example 149, cyclopropyl(4-(4-((3-(7-(((3S,4R)-3-fluoro-1-methylpiperidin-4-yl)amino)-3-(2,2,2-trifluoroethyl)benzo[b]thiophen-2-yl)prop-2-yn-1-yl)amino)-3-methoxyphenyl)-4-oxido-1,4-azaphosphinan-1-yl)methanone], the figures for the EC50 in assay [1] and in assay [2] (setting [5]) were 46 nM and 0.09 µM, respectively. Moreover, the IC50 in the assay with NUGC3 (P53 Y220C) (setting [3]) turned out to be 0.37 µM; in the assay with NUGC4 (P53 WT) (setting [4]), 3.7 µM.

For the molecule `COc1cc(P(C)(C)=O)ccc1NCC#Cc1sc2c(NC3CCN(CCCF)CC3)cccc2c1CC(F)(F)F` [Example 205, (4-((3-(7-((1-(3-fluoropropyl)piperidin-4-yl)amino)-3-(2,2,2-trifluoroethyl)benzo[b]thiophen-2-yl)prop-2-yn-1-yl)amino)-3-methoxyphenyl)dimethylphosphine oxide], the EC50 in assay [1] turned out to be 65 nM; in assay [2] (setting [5]), 0.55 µM. Moreover, the 50% inhibitory concentration (IC50) was 1.32 µM in the assay on NUGC3 (P53 Y220C) (setting [3]) and 4.1 µM in the assay on NUGC4 (P53 WT) (setting [4]).

For `COc1cc(P(C)(C)=O)ccc1NCC#Cc1sc2c(N[C@@H]3CCN(C4CCOCC4)C[C@@H]3F)cccc2c1CC(F)(F)F` [Example 147, (4-((3-(7-(((3S,4R)-3-fluoro-1-(tetrahydro-2H-pyran-4-yl)piperidin-4-yl)amino)-3-(2,2,2-trifluoroethyl)benzo[b]thiophen-2-yl)prop-2-yn-1-yl)amino)-3-methoxyphenyl)dimethylphosphine oxide], the concentration for a half-maximal effect (EC50) turned out to be 91 nM in assay [1] and 0.11 µM in assay [2] (setting [6]). Besides, the IC50 was found to be 1.47 µM in the assay with NUGC3 (P53 Y220C) (setting [3]) and 6.83 µM with NUGC4 (P53 WT) (setting [4]).

As to `COc1cc(P(C)(C)=O)ccc1NCC#Cc1sc2c(NC3CCN(C)CC3F)cccc2c1CC#N` (racemic) [Example 107, 2-(2-(3-((4-(dimethylphosphoryl)-2-methoxyphenyl)amino)prop-1-yn-1-yl)-7-(((Z)-3-fluoro-1-methylpiperidin-4-yl)amino)benzo[b]thiophen-3-yl)acetonitrile], the EC50 in assay [1] is 60 nM; in assay [2] (setting [5]), 0.96 µM. Also, the figures for the IC50 in the assay with NUGC3 (P53 Y220C) (setting [3]) and with NUGC4 (P53 WT) (setting [4]) were 7.25 µM and 20.6 µM, respectively.

With `COc1cc(P(C)(C)=O)ccc1NCC#Cc1sc2c(NC3[C@@H]4COC[C@H]3CN(C)C4)cccc2c1CC(F)(F)F` (single isomer, unassigned) [Example 196], the EC50 in assay [1] amounted to 67 nM; in assay [2] (setting [6]), 0.66 µM. Besides, the results for the IC50 with NUGC3 (P53 Y220C) (setting [3]) and with NUGC4 (P53 WT) (setting [4]) were 6.71 µM and 18.6 µM, respectively.

`COc1cc(P(C)(C)=O)ccc1NCC#Cc1sc2c(NC3CC4CN(C)CC4C3)cccc2c1CC(F)(F)F` (centres unmarked) [Example 182]: the EC50 in assay [1] was determined as 58 nM; in assay [2] (setting [5]), 0.48 µM. The half-maximal inhibitory concentration (IC50) in the assay on NUGC3 (P53 Y220C) (setting [3]) amounted to 2.03 µM; with NUGC4 (P53 WT) (setting [4]), 3.74 µM.

As to `COc1cc(P(C)(C)=O)ccc1NCC#Cc1sc2c(N[C@@H]3CCN(C)C[C@H]3C)cccc2c1CC(F)(F)F` [Example 128, (4-((3-(7-(((3R,4R)-1,3-dimethylpiperidin-4-yl)amino)-3-(2,2,2-trifluoroethyl)benzo[b]thiophen-2-yl)prop-2-yn-1-yl)amino)-3-methoxyphenyl)dimethylphosphine oxide], the EC50 came to 53 nM in assay [1] and 0.1 µM in assay [2] (setting [6]). For the same molecule, the IC50 in the assay on NUGC3 (P53 Y220C) (setting [3]) came out at 0.87 µM; in the assay on NUGC4 (P53 WT) (setting [4]), 2.26 µM.

As to `CCN1CC[C@@H](Nc2cccc3c(CC(F)(F)F)c(C#CCNc4ccc(P(C)(C)=O)cc4OC)sc23)[C@@H](F)C1` [Example 135, (4-((3-(7-(((3S,4R)-1-ethyl-3-fluoropiperidin-4-yl)amino)-3-(2,2,2-trifluoroethyl)benzo[b]thiophen-2-yl)prop-2-yn-1-yl)amino)-3-methoxyphenyl)dimethylphosphine oxide], the half-maximal effective concentration (EC50) was 26 nM in assay [1] and 0.04 µM in assay [2] (setting [6]). In addition, the 50% inhibitory concentration (IC50) in the assay on NUGC3 (P53 Y220C) (setting [3]) turned out to be 1.16 µM; in the assay with NUGC4 (P53 WT) (setting [4]) it was 3.62 µM.

In the case of `CN1CC[C@@H](Nc2cccc3c(CC(F)(F)F)c(C#CCNC(=O)c4ccn(C(C)(C)C)c4)sc23)[C@@H](F)C1` (racemic) [Example 130, 1-tert-butyl-N-[3-[7-[((Z)-3-fluoro-1-methyl-4-piperidyl)amino]-3-(2,2,2-trifluoroethyl)benzothiophen-2-yl]prop-2-ynyl]pyrrole-3-carboxamide], the EC50 in assay [1] came out at 117 nM; in assay [2] (setting [5]), 0.36 µM. For the same molecule, the IC50 in the assay on NUGC3 (P53 Y220C) (setting [3]) was 3.55 µM; in the assay on NUGC4 (P53 WT) (setting [4]), 6.85 µM.
